Experimental findings from patent US20190247449A1, “COMPOSITIONS COMPRISING A NON-PATHOGENIC BACTERIA AND METHODS FOR […] AND ANIMAL HOSTS FROM FUNGAL, BACTERIAL AND VIRAL DISEASES” (priority 2016, published 2019) are described below.

Holding throughout (type): cell-based
The subject of data set [1] is NO production. In words: Nitric oxide production by Griess assay in activated macrophages. As for the experimental part:
(§1) RAW 264.7 macrophages were grown in flat-bottomed flasks using a standard growth medium (DMEM supplemented with 5% FBS, antibiotics and glutamine. The cells were maintained in accordance with standard procedures well known in the art. After the cells reached confluence, they were removed from the flasks using mechanical means and then concentrated by centrifuging and resuspended in a small volume of fresh culture medium. The cell concentration was adjusted with growth medium in order that about 75,000 cells could be added to each well of a 96-well plate. A combination of 25 µg/mL LPS and 10 U/ml IFN-γ DMEM, was used for activation of the macrophages. The various test agents were added to the wells one hour prior to activation. The cells were then incubated for a further 24 hours, prior to assaying the inflammatory mediator production and cell viability.
The production of NO by the macrophages subjected to the various treatments was assayed using the Griess reagent (equal volumes of 1% sulphanilamide and 0.1% napthyethylene-diamine in 5% HCl). 70 μL of supernatant from each test well was transferred to a fresh 96-well plate and mixed with 70 μL of Griess reagent and the violet color produced was measured at 540 nm.
On the technique in general: Nitrite, measured by Griess reagent, commonly stands in for NO production.

Data set [2] has as its system TNF-α production. In words: TNF-α determination by ELISA in activated macrophages. Conditions: RAW 264.7 macrophages activated with LPS and IFN-γ, agents added one hour before, 24 hours. As for the experimental part: as §1
A sandwich ELISA was used to determine TNF-α concentration. The primary antibody was used at a concentration of […] in PBS. Serial dilutions of TNF-α standard from 0 to 1000 pg/mL in diluent (0.05% Tween-20, 0.1% BSA in PBS) were used as internal standard. TNF-α was detected with a biotinylated second antibody and an avidin peroxidase conjugate with TMB as detection reagent. The color development was monitored at 655 nm, taking readings after every 5 minutes. After 25 minutes, the reaction was stopped using 0.5 M sulphuric acid and the absorbance was measured at 450 nm.
Background: An ELISA detects its analyte on a solid surface through an enzyme-linked reagent.

The test system of data set [3] is RAW 264.7 macrophages. Briefly: Cell viability, Alamar Blue assay. Particulars: % of untreated control cells. The protocol: as §1
The Alamar Blue assay of viability was performed by adding 100 μL of a 10% Alamar Blue solution to each well and incubating at 37° C. for 1-2 hr. Fluorescence was measured (excitation at 545 nm and emission at 595 nm) and expressed as a percentage of the values in untreated control cells.
(In general: Resazurin is reduced to fluorescent resorufin, in cell work by metabolically active cells.)

Where [4] appears, read: at the IC50 for inhibition of NO.
[5] abbreviates: at the IC50 for inhibition of TNF-α.

Usually IC50 stands for the concentration that inhibits the measured activity by half.

On to `C=C[C@](C)(O)CC[C@@H]1[C@@]2(C)CCCC(C)(C)[C@@H]2CC[C@@]1(C)O` [Sclareol], for which the half-inhibitory concentration (IC50) in data set [1] (Mus musculus, RAW264.7, read-out: IC50 for the inhibition of NO production) is 40 µg/mL; in data set [2] (Mus musculus, RAW264.7, read-out: IC50 for the inhibition of TNF-α production), 80 µg/mL. Also, the results for the “Cell viability (% of cell survival)” value in data set [3] (setting [4]) and in data set [3] (setting [5]) were 96.20 ± 2.1 % of cell survival and 95.30 ± 2.2 % of cell survival, respectively.

In the case of Naringin, the “IC50 for the inhibition of NO production” value in data set [1] (RAW 264.7 macrophages activated with LPS and IFN-γ, agents added one hour before, 24 hours) worked out at 40 µg/mL. For the same compound, the “IC50 for the inhibition of TNF-α production” value in data set [2] was determined as 90 µg/mL. The results for the “Cell viability (% of cell survival)” value in data set [3] (setting [4]) and in data set [3] (setting [5]) were 90.10 ± 4.2 % of cell survival and 91.50 ± 5.2 % of cell survival, respectively.

In the case of Steviol glycoside, the “IC50 for the inhibition of TNF-α production” value in data set [2] amounted to 80 µg/mL. Besides, the “Cell viability (% of cell survival)” value in data set [3] (setting [4]) was 98.20 ± 4.2 % of cell survival; in data set [3] (setting [5]) it was 99.54 ± 4.1 % of cell survival.
